Measured values from ChEMBL document CHEMBL1201862, “PubChem BioAssay data set” (2004).
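Growth conditions: 96-well plates. Treatment: test compound, 48 hours, 5 concentrations. Analysis: linear interpolation between bracketing concentrations; unreached endpoints set to highest concentration. GI50: concentration for 50% inhibition of growth.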 Calls of active or inactive are those of the source. No stated cut-off is given here; in the data, active = GI50 up to about 1.1 µM and inactive = higher.

Key:
Assay in all cases: NCI tumour cell line growth inhibition, 48 h
SK-MEL-28 = test system: SK-MEL-28
K562 = test system: K562
PC-3 = test system: PC-3
UACC-257 = test system: UACC-257
U-251 = test system: U-251
MDA-MB-231 = test system: MDA-MB-231
ACHN = test system: ACHN
HCT-116 = test system: HCT-116
EKVX = test system: EKVX
Malme-3M = test system: Malme-3M
HOP-62 = test system: HOP-62
A498 = test system: A498
OVCAR-8 = test system: OVCAR-8
MDA-MB-435 = test system: MDA-MB-435
UO-31 = test system: UO-31
SK-MEL-2 = test system: SK-MEL-2
RPMI-8226 = test system: RPMI-8226
RXF 393 = test system: RXF 393
OVCAR-3 = test system: OVCAR-3

Row | SMILES | GI50 (SK-MEL-28) | GI50 (K562) | GI50 (PC-3) | GI50 (UACC-257) | GI50 (U-251) | GI50 (MDA-MB-231) | GI50 (ACHN) | GI50 (HCT-116) | GI50 (EKVX) | GI50 (Malme-3M) | GI50 (HOP-62) | GI50 (A498) | GI50 (OVCAR-8) | GI50 (MDA-MB-435) | GI50 (UO-31) | GI50 (SK-MEL-2) | GI50 (RPMI-8226) | GI50 (RXF 393) | GI50 (OVCAR-3)
1 | C=CCOC(=O)Cn1cc(C)c(=O)[nH]c1=O | > 100 µM (inactive) | > 100 µM (inactive) | > 100 µM (inactive) | > 100 µM (inactive) | > 100 µM (inactive) | > 100 µM (inactive) | > 100 µM (inactive) | > 100 µM (inactive) | > 100 µM (inactive) | > 100 µM (inactive) | > 100 µM (inactive) | > 100 µM (inactive) | > 100 µM (inactive) | > 100 µM (inactive) | > 100 µM (inactive) | > 100 µM (inactive) | > 100 µM (inactive) |  | 
2 | N#CNC(=N)NC(=O)/C=C/C=C/c1ccc(Cl)cc1 | > 100 µM (inactive) | > 100 µM (inactive) |  | > 100 µM (inactive) | > 100 µM (inactive) |  | > 100 µM (inactive) | > 100 µM (inactive) |  | 39.4 µM (inactive) | > 100 µM (inactive) | > 100 µM (inactive) | 82.2 µM (inactive) |  | > 100 µM (inactive) | > 100 µM (inactive) | > 100 µM (inactive) | 41.6 µM (inactive) | > 100 µM (inactive)
3 | COC1=CC(=O)[C@]2(C)[C@H](C1=O)C(C)[C@H]2c1ccccc1 (stereo not given in full) | > 100 µM (inactive) | > 100 µM (inactive) |  | > 100 µM (inactive) | > 100 µM (inactive) |  | > 100 µM (inactive) |  | > 100 µM (inactive) | > 100 µM (inactive) | > 100 µM (inactive) | > 100 µM (inactive) | > 100 µM (inactive) |  | > 100 µM (inactive) | > 100 µM (inactive) | > 100 µM (inactive) | > 100 µM (inactive) | > 100 µM (inactive)
4 | CCOC(=O)c1c(N2CCCC2)ncn(C)c1=S | > 100 µM (inactive) | > 100 µM (inactive) | > 100 µM (inactive) | > 100 µM (inactive) | > 100 µM (inactive) | > 100 µM (inactive) | > 100 µM (inactive) | > 100 µM (inactive) | > 100 µM (inactive) | > 100 µM (inactive) | > 100 µM (inactive) | > 100 µM (inactive) | > 100 µM (inactive) | > 100 µM (inactive) | 41.6 µM (inactive) | > 100 µM (inactive) | > 100 µM (inactive) | > 100 µM (inactive) | > 100 µM (inactive)
5 | CC(C)(CN1CCCCC1)C(=O)/C=C/c1ccccc1 | 15.6 µM (inactive) | 3.4 µM (inactive) |  | 14.5 µM (inactive) | 21.5 µM (inactive) |  | 25.8 µM (inactive) | 15.3 µM (inactive) | 7.13 µM (inactive) | 14.6 µM (inactive) | 24.7 µM (inactive) | 18.5 µM (inactive) | 15.8 µM (inactive) |  | 15.2 µM (inactive) | 14.4 µM (inactive) | 14.7 µM (inactive) | 11.9 µM (inactive) | 6.07 µM (inactive)
6 | COC(=O)C1CCC2(CC1)NC(=O)NC2=O (stereo not given) | > 100 µM (inactive) | > 100 µM (inactive) |  | > 100 µM (inactive) | > 100 µM (inactive) |  | > 100 µM (inactive) | > 100 µM (inactive) | > 100 µM (inactive) | > 100 µM (inactive) | > 100 µM (inactive) | > 100 µM (inactive) | > 100 µM (inactive) |  | > 100 µM (inactive) | > 100 µM (inactive) | > 100 µM (inactive) | > 100 µM (inactive) | > 100 µM (inactive)
7 | CN(C)CCN(C)C(=O)c1cccc2cccc(C(=O)O)c12 | > 100 µM (inactive) | > 100 µM (inactive) |  | > 100 µM (inactive) | > 100 µM (inactive) |  | > 100 µM (inactive) | > 100 µM (inactive) | > 100 µM (inactive) | > 100 µM (inactive) | > 100 µM (inactive) | > 100 µM (inactive) | > 100 µM (inactive) |  | > 100 µM (inactive) | 0.723 µM (active) | > 100 µM (inactive) | > 100 µM (inactive) | > 100 µM (inactive)
8 | COC(=O)/C=C\C1C(C(=O)OC)C2(C(=O)OC)CCC1(C(=O)OC)N2 (stereo not given) | 13.6 µM (inactive) | 12 µM (inactive) |  | 6.5 µM (inactive) | 18.5 µM (inactive) |  | 9.33 µM (inactive) | 13.8 µM (inactive) | 27.2 µM (inactive) | 5.98 µM (inactive) | 18.1 µM (inactive) | 18.1 µM (inactive) | 7.19 µM (inactive) |  | 17 µM (inactive) | 15.5 µM (inactive) | 5.08 µM (inactive) | 7.21 µM (inactive) | 15.3 µM (inactive)
9 | CC1(C)OCC(C(O)C2OC(C)(C)OC2/C=N\O)O1 (stereo not given) | > 100 µM (inactive) | > 100 µM (inactive) |  | > 100 µM (inactive) | > 100 µM (inactive) |  | > 100 µM (inactive) | > 100 µM (inactive) | > 100 µM (inactive) | > 100 µM (inactive) | > 100 µM (inactive) | > 100 µM (inactive) | > 100 µM (inactive) |  | > 100 µM (inactive) | > 100 µM (inactive) | > 100 µM (inactive) | > 100 µM (inactive) | > 100 µM (inactive)
10 | CCCCCCCCSC(SCCCCCCCC)=C1C(=O)N(c2ccccc2)N=C1C | > 100 µM (inactive) | 28.7 µM (inactive) |  | 30.5 µM (inactive) | 17.5 µM (inactive) |  | 35.2 µM (inactive) | 14.8 µM (inactive) | 59.3 µM (inactive) | 53.6 µM (inactive) | 46.5 µM (inactive) | 24.3 µM (inactive) | 35.5 µM (inactive) |  | 27.5 µM (inactive) | 58.6 µM (inactive) | 39.4 µM (inactive) | 53.5 µM (inactive) | 29.4 µM (inactive)
11 | COC(=O)C(C(=O)C(=O)Nc1c(Cl)cc([N+](=O)[O-])cc1Cl)c1csc(-n2nc(C3=CCCCC3)cc2-c2ccccc2)n1 (stereo not given) |  | 48.5 µM (inactive) |  | 46.6 µM (inactive) | > 100 µM (inactive) |  | 35.5 µM (inactive) | 42.5 µM (inactive) | 8.47 µM (inactive) | > 100 µM (inactive) | 64.9 µM (inactive) | 32.9 µM (inactive) | 61.7 µM (inactive) |  | 25.9 µM (inactive) | > 100 µM (inactive) | 27.9 µM (inactive) | 63.7 µM (inactive) | 59 µM (inactive)
12 | CC(C)[Si](CC1=CCCCC12C(=O)N(COCC[Si](C)(C)C)c1ccccc12)(C(C)C)C(C)C (stereo not given) | 92.5 µM (inactive) | > 100 µM (inactive) | > 100 µM (inactive) | 37.6 µM (inactive) | > 100 µM (inactive) | > 100 µM (inactive) | > 100 µM (inactive) |  | 63.8 µM (inactive) | > 100 µM (inactive) | > 100 µM (inactive) | > 100 µM (inactive) | 89.3 µM (inactive) | > 100 µM (inactive) | > 100 µM (inactive) | > 100 µM (inactive) | > 100 µM (inactive) | 20.6 µM (inactive) | 39.4 µM (inactive)
13 | CC12CC[C@@H](C(C)(C)O)C1[C@@H](O)CC1(C)C2CCC2[C@@]3(C)CC[C@H](O)C(C)(C)C3C(O)C[C@]21C (stereo not given in full) | 16.8 µM (inactive) | 11.8 µM (inactive) |  | > 10 µM (inactive) | 13.4 µM (inactive) |  | 13.1 µM (inactive) | 11.4 µM (inactive) | 13.2 µM (inactive) | 13.8 µM (inactive) |  | 13.5 µM (inactive) | 16.5 µM (inactive) |  | 21.6 µM (inactive) | 18.7 µM (inactive) | 21.3 µM (inactive) | 6.85 µM (inactive) | 16.8 µM (inactive)
14 | N#Cc1cnsc1 | > 100 µM (inactive) | > 100 µM (inactive) |  | > 100 µM (inactive) | > 100 µM (inactive) |  | > 100 µM (inactive) | > 100 µM (inactive) | > 100 µM (inactive) | > 100 µM (inactive) | > 100 µM (inactive) | > 100 µM (inactive) | > 100 µM (inactive) |  | > 100 µM (inactive) | > 100 µM (inactive) | > 100 µM (inactive) | > 100 µM (inactive) | > 100 µM (inactive)
15 | CNC(=S)/C(C#N)=C(\N)N1CCCC1 | > 100 µM (inactive) | > 100 µM (inactive) | > 100 µM (inactive) |  | > 100 µM (inactive) | > 100 µM (inactive) | > 100 µM (inactive) | > 100 µM (inactive) | > 100 µM (inactive) | > 100 µM (inactive) | > 100 µM (inactive) | > 100 µM (inactive) | > 100 µM (inactive) | > 100 µM (inactive) | > 100 µM (inactive) | > 100 µM (inactive) | > 100 µM (inactive) | > 100 µM (inactive) | > 100 µM (inactive)
16 | CC1CCC(C(C)C)C(O[C@@H]2OC(=O)C[C@@H]2Sc2ccccc2)C1 (stereo not given in full) | 22.3 µM (inactive) | 19.1 µM (inactive) |  | 16.3 µM (inactive) | > 10 µM (inactive) |  | 20 µM (inactive) | 25.9 µM (inactive) | 34 µM (inactive) | 18.5 µM (inactive) | 32.1 µM (inactive) | 28.6 µM (inactive) | 18.9 µM (inactive) |  | > 10 µM (inactive) | 17.5 µM (inactive) | 13.3 µM (inactive) | 13.4 µM (inactive) | 14.5 µM (inactive)
